Results on four molecules are retold here after ChEMBL document CHEMBL1201862, “PubChem BioAssay data set” (2004).

For test [1], the target named is DNA damage-inducible transcript 3 protein (Mus musculus, UniProt P35639). The class given is functional, Cricetulus griseus.
The target of another test is X-box-binding protein 1 (Homo sapiens, UniProt P17861). In kind it is functional, Cricetulus griseus.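 Further: confirmatory dose-response counter-screen serving a CHOP assay.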
Test [2] in a line: HEp-2 cell cytotoxicity, dose response, cytotoxicity control for RSV inhibitor project, HTS (AID 2410). In kind it is functional. Particulars: human respiratory syncytial virus.
In test [3] the test system is HEK293. Kind of test: NOD1 signaling inhibitors, primary screen, cell-based, luminescence, uHTS (AID 1578). The class given is functional. Conditions: Homo sapiens.
Test [4] relates to Streptococcus sp. 'group A'. Kind of test: growth inhibition of control SK(-) GAS strain, dose response, counter-screen for streptokinase expression inhibitor project, luminescence, kanamycin, BacTiterGlo, confirmation (AID 1900). In kind it is functional, organism-based. Particulars: read-out: EC50. Background: A counterscreen serves to expose hits that act by an unwanted route or on another target.

The test system of test [5] is HEK293. Nature of the test: cells. Particulars: Homo sapiens. The class given is functional, cell-based.
Another test addresses T1, Streptokinase A (Streptococcus pyogenes serotype M1, UniProt P10520).
T1 sequence (P10520 whole entry): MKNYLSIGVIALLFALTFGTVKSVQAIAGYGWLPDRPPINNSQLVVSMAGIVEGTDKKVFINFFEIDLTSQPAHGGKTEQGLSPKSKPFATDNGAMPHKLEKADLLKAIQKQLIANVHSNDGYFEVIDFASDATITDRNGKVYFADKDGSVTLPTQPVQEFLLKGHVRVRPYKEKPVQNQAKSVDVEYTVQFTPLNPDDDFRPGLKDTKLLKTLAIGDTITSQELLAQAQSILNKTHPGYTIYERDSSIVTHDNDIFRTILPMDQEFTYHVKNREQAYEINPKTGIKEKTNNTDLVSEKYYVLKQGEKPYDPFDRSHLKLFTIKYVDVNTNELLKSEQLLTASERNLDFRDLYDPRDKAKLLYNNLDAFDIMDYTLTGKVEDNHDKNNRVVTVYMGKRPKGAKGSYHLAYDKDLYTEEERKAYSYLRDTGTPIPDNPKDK
Nature of the test: S. pyogenes streptokinase expression inhibitors, potency, dose response, plasminogen activation absorbance, OD405 (AID 1914).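 Further: secreted streptokinase activity via plasminogen activation per viability signal from cell pellet.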 The class given is functional, Streptococcus pyogenes M1 GAS.

Test [6] deals with HEK293. Kind of test: cells. In kind it is functional, cell-based. Conditions: Homo sapiens. This is another data set of the same source.
Test [7] has as its target Nucleotide-binding oligomerization domain-containing protein 2 (Homo sapiens, UniProt Q9HC29). Nature of the test: NOD2 signaling inhibitors, cell-based, luminescence, uHTS, HEK293 (AID 1566). The class given is functional.
Test [8] has as its system HEK293. Nature of the test: NOD2 signaling inhibitors in MDP-stimulated cells, cell-based, uHTS, luminescence (AID 2001). In kind it is functional. Particulars: Homo sapiens.
In test [9] the test system is HEK293. Nature of the test: cells. In kind it is functional, cell-based. Conditions: Homo sapiens. This is another data set of the same source.
Another test concerns Streptococcus. Nature of the test: Group A Streptococcus viability loss, dose response, counter-screen for streptokinase expression inhibitor project, luminescence, BacTiterGlo (AID 1915).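 Further: potency for reduction of bacterial viability or growth.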 In kind it is functional, organism-based.
The target in test [10] is T2, Short transient receptor potential channel 4 (Mus musculus, UniProt Q9QUQ5).
T2 sequence (Q9QUQ5 whole entry): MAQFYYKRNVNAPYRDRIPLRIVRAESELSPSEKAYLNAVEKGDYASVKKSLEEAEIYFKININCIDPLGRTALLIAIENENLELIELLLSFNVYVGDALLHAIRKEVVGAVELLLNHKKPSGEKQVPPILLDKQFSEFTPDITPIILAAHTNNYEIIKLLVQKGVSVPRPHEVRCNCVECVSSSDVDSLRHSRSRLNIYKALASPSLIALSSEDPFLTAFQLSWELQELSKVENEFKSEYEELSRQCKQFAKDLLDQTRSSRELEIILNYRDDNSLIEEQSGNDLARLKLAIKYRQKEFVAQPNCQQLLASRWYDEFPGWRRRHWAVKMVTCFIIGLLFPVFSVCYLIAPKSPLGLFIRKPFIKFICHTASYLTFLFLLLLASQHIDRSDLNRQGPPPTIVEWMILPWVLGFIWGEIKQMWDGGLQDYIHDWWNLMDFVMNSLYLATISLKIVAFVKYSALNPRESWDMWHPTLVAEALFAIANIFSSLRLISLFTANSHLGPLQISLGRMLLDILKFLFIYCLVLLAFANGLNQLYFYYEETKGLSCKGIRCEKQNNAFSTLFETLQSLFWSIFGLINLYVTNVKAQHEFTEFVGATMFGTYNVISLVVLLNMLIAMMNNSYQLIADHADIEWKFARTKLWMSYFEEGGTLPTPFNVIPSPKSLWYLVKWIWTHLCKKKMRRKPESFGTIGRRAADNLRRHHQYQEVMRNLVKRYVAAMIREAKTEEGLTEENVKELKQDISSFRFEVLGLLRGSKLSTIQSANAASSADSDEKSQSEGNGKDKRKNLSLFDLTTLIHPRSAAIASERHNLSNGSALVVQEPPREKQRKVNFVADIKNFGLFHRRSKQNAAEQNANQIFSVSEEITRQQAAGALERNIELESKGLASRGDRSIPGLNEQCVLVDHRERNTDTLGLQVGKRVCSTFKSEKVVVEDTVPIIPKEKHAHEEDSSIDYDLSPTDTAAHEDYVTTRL
Kind of test: mouse TRPC4 channel activators, dose response, cell-based, HEK293 TRPC4/mu-opioid, Fluo-4 calcium (AID 434937). The class given is functional.

Test [11] addresses Glyceraldehyde-3-phosphate dehydrogenase (Homo sapiens, UniProt P04406).
The target of test [12] is Alkaline phosphatase, placental type (Homo sapiens, UniProt P05187). Kind of test: PLAP enzyme inhibitors, confirmation, biochemical, luminescence (AID 1512). The class given is functional.
The target in test [13] is T3, Alkaline phosphatase, tissue-nonspecific isozyme (Homo sapiens, UniProt P05186).
T3 sequence (P05186 whole entry): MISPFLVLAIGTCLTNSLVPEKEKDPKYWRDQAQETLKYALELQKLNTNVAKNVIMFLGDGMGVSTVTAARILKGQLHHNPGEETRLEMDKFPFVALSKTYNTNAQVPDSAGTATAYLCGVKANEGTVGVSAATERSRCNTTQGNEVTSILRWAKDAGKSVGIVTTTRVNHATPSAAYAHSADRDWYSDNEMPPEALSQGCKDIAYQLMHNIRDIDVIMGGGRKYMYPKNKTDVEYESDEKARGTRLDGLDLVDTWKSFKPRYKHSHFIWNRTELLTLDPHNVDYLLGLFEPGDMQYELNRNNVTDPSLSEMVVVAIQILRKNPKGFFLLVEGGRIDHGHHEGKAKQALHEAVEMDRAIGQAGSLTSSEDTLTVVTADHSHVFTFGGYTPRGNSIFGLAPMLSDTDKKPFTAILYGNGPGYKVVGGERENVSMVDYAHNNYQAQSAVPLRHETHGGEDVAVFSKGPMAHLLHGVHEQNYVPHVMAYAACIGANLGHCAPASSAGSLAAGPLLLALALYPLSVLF
Nature of the test: human TNAP enzyme inhibitors, SAR follow-up, biochemical, luminescent, dose response (AID 1056).

Another test has as its system T-cell. Nature of the test: inhibitors of CD8+ T cell–vesicle binding, dose response, mouse 2C CD8+ T cells, flow cytometry (AID 485284). In kind it is functional.
The next test in a line: cells. In kind it is functional.
The target of test [14] is T4, Replicative DNA helicase DnaB (Mycobacterium tuberculosis, UniProt P9WMR3).
T4 sequence (P9WMR3 whole entry): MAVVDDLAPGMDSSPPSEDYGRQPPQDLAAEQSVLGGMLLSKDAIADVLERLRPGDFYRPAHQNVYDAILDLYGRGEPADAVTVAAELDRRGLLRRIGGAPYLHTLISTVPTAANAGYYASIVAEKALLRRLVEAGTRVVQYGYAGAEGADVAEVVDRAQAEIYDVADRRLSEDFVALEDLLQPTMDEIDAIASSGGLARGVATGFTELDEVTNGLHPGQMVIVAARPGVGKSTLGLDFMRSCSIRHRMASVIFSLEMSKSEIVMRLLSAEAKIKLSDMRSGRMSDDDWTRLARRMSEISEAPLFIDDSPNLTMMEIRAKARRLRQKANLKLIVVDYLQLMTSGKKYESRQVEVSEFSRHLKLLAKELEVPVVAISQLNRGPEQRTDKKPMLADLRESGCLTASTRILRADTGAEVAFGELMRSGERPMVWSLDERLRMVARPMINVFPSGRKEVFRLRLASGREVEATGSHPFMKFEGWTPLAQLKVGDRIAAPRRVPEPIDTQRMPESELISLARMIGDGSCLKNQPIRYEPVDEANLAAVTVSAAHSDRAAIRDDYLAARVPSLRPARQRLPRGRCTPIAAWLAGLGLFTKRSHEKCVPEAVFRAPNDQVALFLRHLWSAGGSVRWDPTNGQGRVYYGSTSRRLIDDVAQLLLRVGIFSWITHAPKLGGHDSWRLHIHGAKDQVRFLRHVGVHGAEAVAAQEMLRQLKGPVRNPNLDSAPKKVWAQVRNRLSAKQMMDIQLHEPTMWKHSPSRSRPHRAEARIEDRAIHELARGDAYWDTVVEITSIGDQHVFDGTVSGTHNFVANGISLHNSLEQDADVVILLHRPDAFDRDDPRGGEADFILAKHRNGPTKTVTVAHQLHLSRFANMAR
Kind of test: DnaB intein splicing inhibitors, dose response, biochemical, cell-free fluorescence (AID 449749). In kind it is functional.

A further test has as its target T5, Protein RecA (Mycobacterium tuberculosis, UniProt P9WHJ3).
T5 sequence (P9WHJ3 whole entry): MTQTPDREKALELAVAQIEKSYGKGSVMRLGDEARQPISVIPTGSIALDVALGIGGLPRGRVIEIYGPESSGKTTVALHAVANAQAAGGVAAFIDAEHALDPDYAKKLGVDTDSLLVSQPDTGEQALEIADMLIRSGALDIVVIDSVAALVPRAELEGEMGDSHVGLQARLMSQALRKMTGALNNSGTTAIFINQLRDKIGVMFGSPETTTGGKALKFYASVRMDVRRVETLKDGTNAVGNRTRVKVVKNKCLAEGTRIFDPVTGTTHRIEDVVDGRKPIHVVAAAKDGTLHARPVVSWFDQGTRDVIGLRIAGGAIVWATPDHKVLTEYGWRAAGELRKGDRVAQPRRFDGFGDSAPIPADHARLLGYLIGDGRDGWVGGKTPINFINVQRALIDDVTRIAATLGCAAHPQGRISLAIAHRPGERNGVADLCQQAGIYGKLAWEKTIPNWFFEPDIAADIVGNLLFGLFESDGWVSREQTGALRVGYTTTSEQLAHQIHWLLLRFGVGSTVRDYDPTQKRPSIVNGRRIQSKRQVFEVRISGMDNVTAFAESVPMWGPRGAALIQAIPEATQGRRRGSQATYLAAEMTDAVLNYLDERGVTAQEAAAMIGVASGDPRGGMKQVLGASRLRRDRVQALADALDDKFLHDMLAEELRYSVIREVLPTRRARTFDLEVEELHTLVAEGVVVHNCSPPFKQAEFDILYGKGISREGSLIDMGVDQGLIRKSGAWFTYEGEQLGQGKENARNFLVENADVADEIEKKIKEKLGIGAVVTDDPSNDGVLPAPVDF
Nature of the test: Fluorescence Cell-Free Homogeneous Dose Retest to Identify Inhibitors of RecA-Intein Splicing Activity. [Related pubchem assays (depositor defined):AID2097, AID2223, AID489010, AID492950]. In kind it is functional.

Activity calls are given as the source filed them.

In general, CC50 refers to the concentration at which the toxic effect on the cells reaches its halfway point. One may read the EC50 as the concentration at which the effect is half-maximal. As usually defined, the IC50 is the concentration at which inhibition is half-maximal. What is called AC50 is the midpoint of the concentration-response curve, whichever way the signal moves.

Sequence of Nucleotide-binding oligomerization domain-containing protein 2 (Q9HC29 whole entry, the tested form may be a part): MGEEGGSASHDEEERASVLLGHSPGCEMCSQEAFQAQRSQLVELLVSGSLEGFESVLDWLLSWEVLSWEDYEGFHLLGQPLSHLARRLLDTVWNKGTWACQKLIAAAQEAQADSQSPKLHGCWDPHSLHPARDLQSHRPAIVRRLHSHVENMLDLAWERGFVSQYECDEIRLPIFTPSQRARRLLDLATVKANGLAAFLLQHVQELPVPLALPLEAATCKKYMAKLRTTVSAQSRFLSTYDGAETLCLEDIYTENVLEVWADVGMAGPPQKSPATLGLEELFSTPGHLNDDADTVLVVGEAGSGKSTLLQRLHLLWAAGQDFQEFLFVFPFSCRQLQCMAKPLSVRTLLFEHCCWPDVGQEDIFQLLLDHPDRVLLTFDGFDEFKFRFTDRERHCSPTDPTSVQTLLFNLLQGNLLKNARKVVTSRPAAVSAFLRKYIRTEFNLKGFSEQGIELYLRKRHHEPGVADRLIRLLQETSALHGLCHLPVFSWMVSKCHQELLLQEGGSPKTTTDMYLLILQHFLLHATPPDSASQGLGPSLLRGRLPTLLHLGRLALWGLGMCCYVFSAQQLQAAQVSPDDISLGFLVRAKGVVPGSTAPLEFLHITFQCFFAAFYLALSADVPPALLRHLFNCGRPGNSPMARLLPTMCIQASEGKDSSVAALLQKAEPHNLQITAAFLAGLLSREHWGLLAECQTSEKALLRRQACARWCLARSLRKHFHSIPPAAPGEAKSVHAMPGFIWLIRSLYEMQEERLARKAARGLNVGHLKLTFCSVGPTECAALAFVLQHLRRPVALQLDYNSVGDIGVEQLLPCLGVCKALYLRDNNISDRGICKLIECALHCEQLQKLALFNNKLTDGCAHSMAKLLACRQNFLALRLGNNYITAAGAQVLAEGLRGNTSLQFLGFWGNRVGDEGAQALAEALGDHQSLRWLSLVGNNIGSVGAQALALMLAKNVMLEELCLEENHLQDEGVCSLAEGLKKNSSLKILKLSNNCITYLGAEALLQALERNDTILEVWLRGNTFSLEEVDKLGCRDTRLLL
Sequence of Alkaline phosphatase, placental type (P05187 whole entry): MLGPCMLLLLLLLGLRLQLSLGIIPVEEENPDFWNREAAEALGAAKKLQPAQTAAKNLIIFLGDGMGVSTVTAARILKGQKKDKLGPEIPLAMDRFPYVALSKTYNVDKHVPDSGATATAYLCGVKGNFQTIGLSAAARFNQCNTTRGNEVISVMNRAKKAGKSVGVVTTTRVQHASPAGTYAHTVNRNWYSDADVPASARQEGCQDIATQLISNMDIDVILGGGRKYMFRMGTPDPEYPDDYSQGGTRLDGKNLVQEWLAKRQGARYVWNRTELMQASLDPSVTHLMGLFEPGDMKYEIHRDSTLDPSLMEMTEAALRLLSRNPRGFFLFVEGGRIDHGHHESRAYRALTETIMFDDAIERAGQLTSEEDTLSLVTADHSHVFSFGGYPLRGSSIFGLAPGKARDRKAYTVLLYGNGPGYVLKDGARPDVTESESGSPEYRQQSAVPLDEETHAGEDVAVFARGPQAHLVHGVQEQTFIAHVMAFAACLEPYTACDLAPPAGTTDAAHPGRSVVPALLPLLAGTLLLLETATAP
Sequence of DNA damage-inducible transcript 3 protein (P35639 whole entry): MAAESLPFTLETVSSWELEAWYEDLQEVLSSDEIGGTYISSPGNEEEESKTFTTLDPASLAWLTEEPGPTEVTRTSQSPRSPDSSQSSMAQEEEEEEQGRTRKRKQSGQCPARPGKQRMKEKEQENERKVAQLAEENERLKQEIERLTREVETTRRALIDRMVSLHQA
Sequence of X-box-binding protein 1 (P17861 whole entry): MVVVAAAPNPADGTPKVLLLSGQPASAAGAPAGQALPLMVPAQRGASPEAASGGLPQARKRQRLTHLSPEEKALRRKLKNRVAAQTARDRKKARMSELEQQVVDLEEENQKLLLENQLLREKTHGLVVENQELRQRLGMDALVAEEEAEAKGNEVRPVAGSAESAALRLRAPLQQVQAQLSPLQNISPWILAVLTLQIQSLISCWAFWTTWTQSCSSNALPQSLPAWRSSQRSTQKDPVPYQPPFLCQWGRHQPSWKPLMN
Sequence of Glyceraldehyde-3-phosphate dehydrogenase (P04406 whole entry): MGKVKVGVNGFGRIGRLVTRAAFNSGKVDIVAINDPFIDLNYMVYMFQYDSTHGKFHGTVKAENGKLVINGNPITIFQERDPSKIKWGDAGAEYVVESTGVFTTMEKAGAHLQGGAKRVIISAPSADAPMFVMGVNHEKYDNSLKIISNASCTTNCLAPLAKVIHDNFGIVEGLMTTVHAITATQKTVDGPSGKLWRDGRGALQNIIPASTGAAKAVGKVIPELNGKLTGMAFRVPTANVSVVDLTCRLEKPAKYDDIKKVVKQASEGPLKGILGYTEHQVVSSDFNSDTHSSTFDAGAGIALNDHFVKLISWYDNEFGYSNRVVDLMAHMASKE

For the molecule `CC1=C(C(=O)Nc2ccc(C)cc2C)C(c2cccc(Cl)c2)n2nc(C(=O)OC(C)C)nc2N1` (stereo not given), the “Absolute IC50 (CHOP)” value in test [1] was 10 µM. The “Absolute IC50 (XBP1)” value on X-box-binding protein 1 is 10 µM.
Consider `Cc1csc2c(N3CCN(C(=O)Nc4ccc(Cl)c(Cl)c4)CC3)ncnc12`, for which the CC50 in test [2] is 43.7 µM (active). Besides, the EC50 in the test with HEK293 [3] is 4.76 µM (active); in [4], 3.4 µM (active); on Streptokinase A, 14.8 µM (active); in [7], 5 µM (active); in the test on Streptococcus it was 57.1 µM (active); in test [10] it was 1.88 µM (active). The IC50 in the test on HEK293 [5] is 4.78 µM (active); with HEK293 [6], 8.45 µM (active); in the test with HEK293 [8] it was 3.23 µM (active); in the test on HEK293 [9], > 20 µM (inactive).
On to `CCCc1n[nH]c2c1C(=O)CC(C)(C)C2`, for which the IC50 in test [11] was > 100 µM (not active); in test [12], > 100 µM (inactive); in [13], 14.4 µM (active).
On to `COc1ccc(NC(=O)Nc2ccc(O)c3ccccc23)cc1`, for which the EC50 in the test on T-cell was 12.5 µM (active); on Protein RecA it was 0.722 µM (active). The IC50 in “cells” was > 50 µM (active). For the same molecule, in test [14], the AC50 was 18 µM (active).
